Experimental findings from ChEMBL document CHEMBL1141649, “Inhaled adenosine A(2A) receptor agonists for the treatment of chronic obstructive pulmonary disease” (Bioorg Med Chem Lett, 2008) are described below.

For data set [1], the target named is Adenosine receptor A2a (Homo sapiens, UniProt P29274). As to the kind of experiment: Agonist activity at adenosine A2A receptor. Type of data set: functional.
A short description of data set [2]: Clearance in rat at 1 mg/kg, iv. Type of data set: ADME, organism-based. The arrangement: dose 1 mg/kg, route intravenous. Particulars: in vivo.
Data set [3] is described as follows: Cmax in intratracheally dosed rat at 1 mg/kg. Type of data set: ADME, organism-based. Set-up: dose 1 mg/kg, route endotracheal. Particulars: in vivo, inhaled or intranasal.
In data set [4] the test system is Rattus norvegicus. The data set is described as follows: Unbound clearance in rat at 1 mg/kg, iv. The class given is ADME, organism-based. Set-up: dose 1 mg/kg, route intravenous. Conditions: in vivo.
Data set [5] in a line: Intrinsic clearance in human liver microsomes. The class given is ADME, Microsome. For orientation: Liver microsomes are vesicles of endoplasmic reticulum, rich in cytochrome P450 enzymes.
A short description of data set [6]: Distribution coefficient, log D at pH 7.4. Type of data set: physicochemical. Particulars: octanol/water.
Data set [7] in a line: Membrane permeability by PAMPA assay. Conditions: read-out: permeability. The class given is ADME.
The species entered for data set [8] is Cavia porcellus. As to the kind of experiment: Inhibition of capsaicin-induced bronchoconstriction in guinea pig after 15 mins. The class given is functional, organism-based.
For data set [9], the species on record is Cavia porcellus. The data set is described as follows: Toxicity assessed as reduction in diastolic blood pressure in guinea pig. Particulars: in vivo. The arrangement: scale not given: the % may be the effect or the level left. Type of data set: organism-based.
In data set [10] the test system is Neutrophil. The data set is described as follows: Inhibition of […]-induced super oxide production in human neutrophils. Type of data set: functional, cell-based.

Active and inactive are the calls of the source. The rule behind the calls is not given here.

Sequence of Adenosine receptor A2a (P29274 whole entry): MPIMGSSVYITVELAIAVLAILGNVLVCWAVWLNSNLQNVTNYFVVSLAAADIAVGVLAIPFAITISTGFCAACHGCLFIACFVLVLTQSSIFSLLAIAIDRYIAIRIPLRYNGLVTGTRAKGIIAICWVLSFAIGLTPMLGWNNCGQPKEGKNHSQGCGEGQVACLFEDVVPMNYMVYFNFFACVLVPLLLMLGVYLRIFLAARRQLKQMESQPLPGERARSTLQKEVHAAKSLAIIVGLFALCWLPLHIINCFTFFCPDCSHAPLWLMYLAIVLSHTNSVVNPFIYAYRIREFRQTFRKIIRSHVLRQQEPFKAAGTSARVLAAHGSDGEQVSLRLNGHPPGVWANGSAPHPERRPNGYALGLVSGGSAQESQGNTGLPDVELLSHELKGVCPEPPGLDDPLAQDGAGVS

In data set [1], `COC[C@H]1O[C@@H](n2cnc3c(NCC(c4ccccc4)c4ccccc4)nc(NCCC4CCCCC4)nc32)[C@H](O)[C@@H]1O` registered an IC50 of 1010 nM.
In data set [2], `CCNC(=O)[C@H]1O[C@@H](n2cnc3c(NCC(c4ccccc4)c4ccccc4)nc(CNC(=O)NCCN(C(C)C)C4CCCC4)nc32)[C@H](O)[C@@H]1O` yielded a clearance of 45 mL/min/kg. The same compound showed a half-inhibitory concentration (IC50) in data set [1] of 6 nM. In [3], this compound gave a Cmax of 1.8 nM. In [4], the CL turned out to be 3500 mL/min/kg. The compound also gave a microsomal CLint in [5] of 135 µL/min/mg. This compound came in with a logD in data set [6] of 2. Besides, the Papp in data set [7] was less than 0.7 ×10⁻⁶ cm/s.
The compound `CCNC(=O)[C@H]1O[C@@H](n2cnc3c(NCC(c4ccccc4)c4ccccc4)nc(C(=O)NCCN4CCCCC4)nc32)[C@H](O)[C@@H]1O` registered an IC50 in [1] of 9 nM.
The same measure, in the same setting: as for `CCNC(=O)[C@H]1O[C@@H](n2cnc3c(NCC(c4ccccc4)c4ccccc4)nc(CNC(=O)NCCN(C4CCCCC4)C(C)(C)C)nc32)[C@H](O)[C@@H]1O`, the figure is 33 nM.
In [1], `COC[C@H]1O[C@@H](n2cnc3c(NCC(c4ccccc4)c4ccccc4)nc(CCNC4CCCCC4)nc32)[C@H](O)[C@@H]1O` displayed an IC50 of 28 nM.
Regarding `CCNC(=O)[C@H]1O[C@@H](n2cnc3c(NCC(c4ccccc4)c4ccccc4)nc(NCCC4CCCCC4)nc32)[C@H](O)[C@@H]1O`, the half-maximal inhibitory concentration (IC50) in data set [1] was 1000 nM.
The same measure, in the same setting: as for `COC[C@H]1O[C@@H](n2cnc3c(NCC(c4ccccc4)c4ccccc4)nc(NCCN4CCCCC4)nc32)[C@H](O)[C@@H]1O`, the figure is 60 nM; as for `COC[C@H]1O[C@@H](n2cnc3c(NCC(c4ccccc4)c4ccccc4)nc(CNC4CCCCC4)nc32)[C@H](O)[C@@H]1O`, 100 nM.
In turn, `O=C(NCCN1CCCCC1)c1nc(NCC(c2ccccc2)c2ccccc2)c2ncn([C@@H]3O[C@H](CO)[C@@H](O)[C@H]3O)c2n1` had a clearance in [2] of 48 mL/min/kg. The compound also yielded an IC50 in data set [1] of 65 nM. In data set [3], this compound registered a Cmax of 20 nM. This compound had a CL in data set [4] of 755 mL/min/kg. Further, the intrinsic clearance (microsomal CLint) in data set [5] is 62.6 µL/min/mg. This compound also displayed a log distribution coefficient (logD) in [6] of 2.1. For the same compound, the Papp in data set [7] amounted to 0.2 ×10⁻⁶ cm/s.
`CCNC(=O)[C@H]1O[C@@H](n2cnc3c(NCC(c4ccccc4)c4ccccc4)nc(CNC(=O)NCCN(C(C)C)C(C)C)nc32)[C@H](O)[C@@H]1O` had a concentration for half-maximal inhibition (IC50) in data set [1] of 11 nM.
`CCNC(=O)[C@H]1O[C@@H](n2cnc3c(N)nc(NCCc4ccc(CCC(=O)O)cc4)nc32)[C@H](O)[C@@H]1O` [CGS-21680] gave a clearance in data set [2] of 14 mL/min/kg. In addition, in data set [3], the Cmax is 271 nM. This compound also came in with a CL in [4] of 82 mL/min/kg. Besides, the result in data set [8] was Active. This compound showed an intrinsic clearance (microsomal CLint) in data set [5] of less than 8 µL/min/mg. In addition, in data set [9], the Activity was 30%. The compound further yielded an IC50 in [10] of 47 nM. In [6], this compound returned a logD of -0.15. Moreover, in [7], the Papp is less than 0.2 ×10⁻⁶ cm/s.
In turn, `CCNC(=O)[C@H]1O[C@@H](n2cnc3c(NCC(c4ccccc4)c4ccccc4)nc(CNC(=O)NCCN4CCCCC4)nc32)[C@H](O)[C@@H]1O` registered an IC50 in data set [1] of 17 nM.

One may read the IC50 as the midpoint of a concentration-inhibition curve. What is called clearance is the rate of elimination divided by the concentration. In general, Cmax refers to the highest concentration seen after dosing. As a reminder, the microsomal CLint is the capacity of the preparation to metabolise the compound, expressed as a volume cleared per time. What is called logD is the decadic logarithm of the distribution of all forms, ionised or not, between an organic phase and buffer at a given pH.
